The test system of test [1] is IL-10. The experiment in a line: IL-10 production from LPS-stimulated PBMC (cytometric bead array). Type of test: cell-based. Conditions: human PBMCs stimulated with LPS 0.6 or 20 ng/ml; hBD2 100, 10 or 1 pg/ml; Dexamethason 3.5 ng/ml; Infliximab 1 μg/ml; 24 hours. As for the experimental part: (§1) Peripheral blood was drawn from healthy volunteers (with approval from the relevant ethical committee in Denmark). Heparinized blood was diluted 1/1 v/v with RPMI and were subjected to Ficoll density centrifugation within 2 h of drawing. Plasma was collected from the top from individual donors and was kept on ice until it was used at 2% in the culture medium (autologous culture medium). Isolated PBMC were resuspended in autologous culture medium and seeded in 96-well culture plates with 255.000 cells per well in a total of 200 μl. PBMC from the same donor were stimulated with 100, 10 or 1 pg/ml of hBD2 (either full-length or cleaved) either alone or together with LPS at 0.6 ng/ml or 20 ng/ml (E. coli, O111:B4, Sigma L4391), as a control on down-regulation of inflammatory cytokines 3.5 ng/ml Dexamethason (Sigma D8893) and 1 μg/ml Infliximab (Centocur B. V., NCI039843LA) was included. The concentrations of these compounds were based on initial titration studies, where the highest possible concentration without effect of viability was used. The supernatants were collected after incubation at 37° C. for 24 hours, and stored at −80° C.° until cytokine measurement. Viability was measured by Alamar Blue (Biosource, DALL 1100) to be sure that anti-inflammatory effects were not due to toxicity.
TNF and IL-10 production in supernatants was measured by flow cytometry with a human inflammation cytometric bead array (CBA) according to manufacturer's instructions (BDBioSciences) on a FACSarray flow cytometer (BDBiosciences).
All experiments were performed at least twice on several donors, with representative results shown. The data presented are expressed as mean plus/minus standard deviation (SD). Statistical significance was determined by 2-way ANOVA with the variables being treatment (hBD2, dexamethazone, etc.) and stimulation (LPS) followed by Bonferroni post-test as reported in the table legends. Differences were considered significant for p<0.05.

The test system of another test is rheumatoid arthritis. The following applies: WO 2010/007168; cited from earlier work.
The test system of test [2] is TNF. Conditions: human PBMCs stimulated with LPS or another TLR ligand; cited from earlier work.
Test [3] has as its system IL-10. The following applies: human PBMCs stimulated with LPS or another TLR ligand; cited from earlier work.
The test system of test [4] is TNF. The experiment in a line: TNF production from LPS-stimulated PBMC (cytometric bead array). The following applies: for TNF production (FIG. 2): human PBMCs stimulated with LPS 0.6 or 20 ng/ml, hBD2 100, 10 or 1 pg/ml, 24 hours. Type of test: cell-based, human. Here is the method:
as §1, with “toxicity. TNF and IL-10 production in supernatants was measured by flow cytometry with a human inflammation cytometric bead array (CBA) according to manufacturer's instructions (BDBioSciences) on a FACSarray flow cytometer (BDBiosciences). All experiments were performed at least twice on several donors, with representative results shown. The data presented are expressed as mean plus/minus standard deviation (SD). Statistical significance was determined by 2-way ANOVA with the variables being treatment (hBD2, dexamethazone, etc.) and stimulation (LPS) followed by Bonferroni post-test as reported in the table legends. Differences were considered significant for p<0.05.” for “toxicity.”

Here are results for three substances from patent US20130052213A1, “NOVEL IMMUNOMODULATORY PEPTIDE” (Novozymes A/S, priority 2011, published 2013).

No end group written: not given here.

Take “Infliximab: anti-TNF antibody, control for anti-inflammatory effects”: the “IL-10 production (FIG. 1)” value with IL-10 [1] was “down-regulate IL-10”.
“full-length hBD2: full length human beta defensin 2, produced recombinantly in E. coli (GIGDPVTCLKSGAICHPVFCPRRYKQIGTCGLPGTKCCKKP; ends and bridges not checked; cysteine pairing not given here; listed as Homo sapiens)”: the “IL-10 production (FIG. 1)” value in the test on IL-10 [1] is listed as “significantly induced IL-10 production”. In the test on rheumatoid arthritis, the “therapeutic potential in animal model of rheumatoid arthritis” value is on record as “has shown therapeutic potential”. Also, the “effect on TNF, previously seen (WO 2010/007166)” value in the test on TNF [2] is “downregulation of TNF”. Further, the “effect on IL-10, previously seen (WO 2010/007166)” value in the test on IL-10 [3] was “upregulation of IL-10”. For the same substance, the “TNF production (FIG. 2)” value with TNF [4] is “significantly reduced TNF production”.
“PVTCLKSGAICHPVFCPRRYKQIGTCGLPGTKCCKKP [cleaved hBD2]”: in the test on IL-10 [1], the “IL-10 production (FIG. 1)” value is on record as “significantly induced IL-10 production”. In addition, in the test with TNF [4] (human PBMC stimulated with LPS, TNF and IL-10 read-outs), the “anti-inflammatory activity in vitro compared with full-length hBD2 (FIGS. 1 and 2)” value is listed as “same anti-inflammatory activity in vitro as full-length hBD2”. For the same substance, the “potency relative to full length hBD2 (FIG. 2)” value in the test with TNF [4] (human PBMC, TNF production, at some concentrations) is given as “more potent than full length human beta-defensin 2”. For the same substance, the “TNF production (FIG. 2)” value in the test on TNF [4] was “significantly reduced TNF production”.
